Laboratory results: patent US7476687B2, “Substituted furo[2,3-g]indazoles for the treatment of glaucoma” (Alcon, Inc., priority 2003, dated 2009)

Assays:
[1] = system: Conscious Cynomolgus Monkeys; test: IOP Response in Conscious Cynomolgus Monkeys; assay type: in vivo, cynomolgus monkey; settings: right eye
Description: IOP was determined with an Alcon Pneumatonometer after light corneal anesthesia with 0.1% proparacaine. Eyes were washed with saline after each measurement. After a baseline IOP measurement, test compound was instilled in one 30 μL aliquot to the right eyes only of nine cynomolgus monkeys. Vehicle was instilled in the right eyes of six additional animals. Subsequent IOP measurements were taken at 1, 3, and 6 hours.

[2] = target: T1, 5HT2A(rat) (Rattus norvegicus, UniProt P14842); test: 5-HT2 Receptor Binding Assay ([125I]DOI competition, cerebral cortex homogenates); parameters: Aliquots of post mortem rat or human cerebral cortex homogenates (400 μL) dispersed in 50 mM TrisHCl buffer; from tissue; host or cells: post mortem rat cerebral cortex homogenate; settings: inhibition of [125I]DOI binding
Description: 5-HT2 Receptor Binding Assay
Aliquots of post mortem rat or human cerebral cortex homogenates (400 μL) dispersed in 50 mM TrisHCl buffer (pH 7.4) are incubated with [^125I]DOI (80 pM final) in the absence or presence of methiothepin (10 μM final) to define total and non-specific binding, respectively, in a total volume of 0.5 mL. The assay mixture is incubated for 1 hour at 23° C. in polypropylene tubes and the assays terminated by rapid vacuum filtration over Whatman GF/B glass fiber filters previously soaked in 0.3% polyethyleneimine using ice-cold buffer. Test compounds (at different concentrations) are substituted for methiothepin. Filter-bound radioactivity is determined by scintillation spectrometry on a beta counter. The data are analyzed using a non-linear, iterative curve-fitting computer program [Trends Pharmacol. Sci., 16, 413 (1995)] to determine the compound affinity parameter. The concentration of the compound needed to inhibit the [^125I]DOI binding by 50% of the maximum is termed the IC50 or Ki value.

[3] = target: T1, 5HT2A(rat); test: 5HT2 Functional Assay: [Ca2+]i Mobilization (FLIPR, A7r5 cells); assay type: cell-based; parameters: endogenous in cells; host or cells: A7r5 rat vascular smooth muscle cells; settings: for EC50: [Ca2+]i mobilization, rat vascular smooth muscle cells A7r5; for Emax: percentage of maximum 5-HT-induced response, A7r5 cells
Description: The receptor-mediated mobilization on intracellular calcium ([Ca^2+]i) was studied using the Fluorescence Imaging Plate Reader (FLIPR) instrument. Rat vascular smooth muscle cells, A7r5, were grown in a normal media of DMEM/10% FBS and 10 μg/mL gentamycin. Confluent cell monolayers were trypsinized, pelleted, and re-suspended in normal media. Cells were seeded in a 50 μL volume at a density of 20,000 cells/well in a black wall, 96-well tissue culture plate and grown for 2 days.
On the day of the experiment, one vial of FLIPR Calcium Assay Kit dye was re-suspended in 50 mL of a FLIPR buffer consisting of Hank's Balanced Salt Solution (HBSS), 20 mM HEPES, and 2.5 mM probenecid, pH 7.4. Cells were loaded with the calcium-sensitive dye by addition of an equal volume (50 μL) to each well of the 96-well plate and incubated with dye for 1 h at 23° C.
Compounds were diluted 1:50 in 20% DMSO/20% Ethanol. For “hit” screening, compounds were further diluted 1:10 in FLIPR buffer and tested at a final concentration of 10 μM.
The compound plate and cell plate were placed in the FLIPR instrument. At the beginning of an experimental run, a signal test was performed to check the basal fluorescence signal from the dye-loaded cells and the uniformity of the signal across the plate. The basal fluorescence was adjusted between 8000-12000 counts by modifying the exposure time, the camera F-stop, or the laser power. Instrument settings for a typical assay were the following: laser power 0.3-0.6 W, camera F-stop F/2, and exposure time 0.4 sec. An aliquot (25 μL) of the test compound was added to the existing 100 μL dye-loaded cells at a dispensing speed of 50 μL/sec. Fluorescence data were collected in real-time at 1.0 sec intervals for the first 60 secs and at 6.0 sec intervals for an additional 120 secs.

[4] = 1 hour after dose, 300 μg topical
[5] = 3 hours after dose, 300 μg topical
[6] = 6 hours after dose, 300 μg topical

T1 sequence (P14842 whole entry): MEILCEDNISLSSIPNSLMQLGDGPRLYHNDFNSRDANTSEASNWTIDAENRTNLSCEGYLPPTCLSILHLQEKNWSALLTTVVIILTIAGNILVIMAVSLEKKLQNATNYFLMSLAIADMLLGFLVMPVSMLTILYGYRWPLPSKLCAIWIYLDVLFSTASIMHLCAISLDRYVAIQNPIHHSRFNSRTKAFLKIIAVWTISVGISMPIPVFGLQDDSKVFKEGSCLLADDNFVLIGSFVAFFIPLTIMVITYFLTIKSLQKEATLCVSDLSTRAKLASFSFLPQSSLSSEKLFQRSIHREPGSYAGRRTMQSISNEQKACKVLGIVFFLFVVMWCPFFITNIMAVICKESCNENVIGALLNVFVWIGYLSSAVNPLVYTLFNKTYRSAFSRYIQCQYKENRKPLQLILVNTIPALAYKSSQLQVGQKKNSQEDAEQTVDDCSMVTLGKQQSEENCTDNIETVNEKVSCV

Compound	Percent IOP Reduction ± SEM ([1]; 1 hour after dose, 100 μg topical) [%]	Percent IOP Reduction ± SEM ([1]; 3 hours after dose, 100 μg topical) [%]	Percent IOP Reduction ± SEM ([1]; 6 hours after dose, 100 μg topical) [%]	IC50 [2] [nM]	Percent IOP Reduction ± SEM [1, 4] [%]	Percent IOP Reduction ± SEM [1, 5] [%]	Percent IOP Reduction ± SEM [1, 6] [%]	EC50 [3] [nM]	Emax [3] [%]	melting point [°C]
COc1cc(C[C@@H](C)N)c(OC)cc1I [(R)-DOI, reference compound]	11 ± 5	25 ± 3	34 ± 5							
C[C@H](N)Cn1ncc2ccc3oc(C(N)=O)cc3c21 [Example 3, 1-((S)-2-Aminopropyl)-1H-furo[2,3-g]indazole-7-carboxylic acid amide]				2.3	9 ± 4	23 ± 4	27 ± 5	158	87	
CNC(=O)c1cc2c(ccc3cnn(C[C@H](C)N)c32)o1.O=C(O)/C=C/C(=O)O [Example 4, 1-((S)-2-Aminopropyl)-1H-furo[2,3-g]indazole-7-carboxylic acid methyl amide fumarate]				0.81	13 ± 3	30 ± 4	31 ± 4	54	98	180 to 182
C[C@H](N)Cn1ncc2ccc3oc(C(=O)NCC(C)(C)CO)cc3c21 [Example 11, 1-((S)-2-Aminopropyl)-1H-furo[2,3-g]indazole-7-carboxylic acid (3-hydroxy-2,2-dimethyl-propyl)-amide]				1.8	10 ± 5	23 ± 5	26 ± 5	74	76	
